Measurements reported in PubChem BioAssay AID330 (DTP/NCI, 2004).
Several values for one entry are separate records, joined by “and”; a condition that tells them apart may be missing. Equal values may be shown once. Toxic doses and inconclusive results are not listed. How the source made its calls: active means survival T/C of 150% or more; inactive means T/C below 125% in these data.

Test system: P388 leukemia ip, CD2F1 mice, survival T/C
Experiment: NCI In Vivo Anticancer Drug Screen. Data for tumor model P388 Leukemia (intraperitoneal) in CD2F1 (CDF1) mice
Details: endpoint: median survival time, higher = longer survival
Procedure, shortened: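 Mice carrying the transplanted tumor received test compound or vehicle. Survival was recorded in each group, and the value is the treated-group measurement divided by that of the vehicle-treated control group.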

[1] = dose: 50.0 mg/kg/injection, schedule: Q01DX005 (ip), vehicle: saline with Tween-80
[2] = dose: 100.0 mg/kg/injection, schedule: Q01DX005 (ip), vehicle: saline with Tween-80
[3] = dose: 200.0 mg/kg/injection, schedule: Q01DX005 (ip), vehicle: saline with Tween-80
[4] = dose: 12.5 mg/kg/injection, schedule: Q01DX009 (ip), vehicle: water
[5] = dose: 25.0 mg/kg/injection, schedule: Q01DX009 (ip), vehicle: water
[6] = dose: 50.0 mg/kg/injection, schedule: Q01DX005 (ip), vehicle: Klucel (hydroxypropylcellulose) (HPC)
[7] = dose: 60.0 mg/kg/injection, schedule: Q01DX005 (ip), vehicle: saline with Tween-80
[8] = dose: 120.0 mg/kg/injection, schedule: Q01DX005 (ip), vehicle: saline with Tween-80
[9] = dose: 240.0 mg/kg/injection, schedule: Q01DX005 (ip), vehicle: saline with Tween-80
[10] = dose: 60.0 mg/kg/injection, schedule: Q01DX005 (ip), vehicle: saline
[11] = dose: 120.0 mg/kg/injection, schedule: Q01DX005 (ip), vehicle: saline
[12] = dose: 240.0 mg/kg/injection, schedule: Q01DX005 (ip), vehicle: saline
[13] = dose: 50.0 mg/kg/injection, schedule: Q01DX009 (ip), vehicle: saline with Tween-80
[14] = dose: 100.0 mg/kg/injection, schedule: Q01DX009 (ip), vehicle: saline with Tween-80
[15] = dose: 200.0 mg/kg/injection, schedule: Q01DX009 (ip), vehicle: saline with Tween-80

Measured: T/C

O=C(O)C(=O)O.[NH2-].[NH2-].[NH2-].[NH2-].[Ru+4]
inactive: dose: 3.13 mg/kg/injection, schedule: Q04DX003 (ip), vehicle: water 110 % of control | dose: 25.0 mg/kg/injection, schedule: Q04DX003 (ip), vehicle: water 98 % of control

CCCCCCCCCCC1OCN2CC(CC)CCC12 (configuration not stated)
inactive: dose: 50.0 mg/kg/injection, schedule: Q01DX005 (ip), vehicle: saline 100 % of control | dose: 100.0 mg/kg/injection, schedule: Q01DX005 (ip), vehicle: saline 101 % of control | dose: 200.0 mg/kg/injection, schedule: Q01DX005 (ip), vehicle: saline 105 % of control

CCCCCCOc1cccc(OCCCC[N+]2(CC)CCCCC2)c1
inactive: dose: 1.56 mg/kg/injection, schedule: Q01DX009 (ip), vehicle: saline 96 % of control | dose: 3.12 mg/kg/injection, schedule: Q01DX009 (ip), vehicle: saline 105 % of control | dose: 6.25 mg/kg/injection, schedule: Q01DX009 (ip), vehicle: saline 91 % of control

O=C(NCN1CCCCC1)c1ccccc1
inactive: dose: 25.0 mg/kg/injection, schedule: Q01DX005 (ip), vehicle: saline with Tween-80 93 % of control and 95 % of control | [1] 98 % of control and 101 % of control and 105 % of control | [2] 102 % of control and 104 % of control | [3] 102 % of control and 113 % of control

COc1ccc2cc3ccncc3cc2c1OC
inactive: [4] 96 % of control | [5] 99 % of control | dose: 50.0 mg/kg/injection, schedule: Q01DX009 (ip), vehicle: water 99 % of control | dose: 100.0 mg/kg/injection, schedule: Q01DX009 (ip), vehicle: water 97 % of control | dose: 200.0 mg/kg/injection, schedule: Q01DX009 (ip), vehicle: water 105 % of control

CON=C1C(C)(C)C(=NOC)C1(C)C
inactive: dose: 12.5 mg/kg/injection, schedule: Q01DX005 (ip), vehicle: Klucel (hydroxypropylcellulose) (HPC) 90 % of control | dose: 25.0 mg/kg/injection, schedule: Q01DX005 (ip), vehicle: Klucel (hydroxypropylcellulose) (HPC) 86 % of control | [6] 99 % of control

CCOc1ccncc1[N+](=O)[O-]
inactive: dose: 25.0 mg/kg/injection, schedule: Q01DX009 (ip), vehicle: saline sonified 100 % of control | dose: 50.0 mg/kg/injection, schedule: Q01DX009 (ip), vehicle: saline sonified 109 % of control | [7] 101 % of control | dose: 100.0 mg/kg/injection, schedule: Q01DX009 (ip), vehicle: saline sonified 90 % of control | [8] 93 % of control | [9] 95 % of control

Cc1cc2cc(C)nc(C)c2c(C)n1
inactive: [6] 94 % of control | dose: 100.0 mg/kg/injection, schedule: Q01DX005 (ip), vehicle: Klucel (hydroxypropylcellulose) (HPC) 89 % of control | dose: 200.0 mg/kg/injection, schedule: Q01DX005 (ip), vehicle: Klucel (hydroxypropylcellulose) (HPC) 92 % of control

O=C1NC2CC1C(O)C2O (configuration not stated)
inactive: [10] 101 % of control | [11] 101 % of control | [12] 100 % of control

NC(CCl)=NCC1C2CC3CC(C2)CC1C3 (configuration not stated)
inactive: dose: 7.5 mg/kg/injection, schedule: Q01DX005 (ip), vehicle: saline with Tween-80 107 % of control and 116 % of control and 120 % of control | dose: 15.0 mg/kg/injection, schedule: Q01DX005 (ip), vehicle: saline with Tween-80 122 % of control | dose: 30.0 mg/kg/injection, schedule: Q01DX005 (ip), vehicle: saline with Tween-80 117 % of control

NC(Cc1cnc[nH]1)C(=O)NO (configuration not stated)
inactive: dose: 100.0 mg/kg/injection, schedule: Q01DX001 (ip), vehicle: saline 94 % of control | dose: 200.0 mg/kg/injection, schedule: Q01DX001 (ip), vehicle: saline 102 % of control | dose: 400.0 mg/kg/injection, schedule: Q01DX001 (ip), vehicle: saline 94 % of control

O=[N+]([O-])c1ccc(C=C2C=CN(CCO)C=C2)cc1
inactive: [1] 100 % of control | [2] 108 % of control

CC(=O)N(O)c1ccccc1-c1ccccc1
inactive: [13] 103 % of control | [14] 99 % of control | [15] 97 % of control

CCCCNC(=S)NNc1nc(N(CC)CC)nc(N(CC)CC)n1
inactive: dose: 100.0 mg/kg/injection, schedule: Q04DX002 (ip), vehicle: saline with Tween-80 99 % of control | dose: 200.0 mg/kg/injection, schedule: Q04DX002 (ip), vehicle: saline with Tween-80 99 % of control

C=CCN=C([S-])Nc1cccc(C(=O)O)c1.[Au+].[Na+]
inactive: [10] 106 % of control | [11] 106 % of control | [12] 108 % of control

Cc1ccc2c(c1)C(=O)C(CN1CCN(C)CC1)CO2 (configuration not stated)
inactive: dose: 50.0 mg/kg/injection, schedule: Q01DX009 (ip), vehicle: saline 106 % of control | dose: 100.0 mg/kg/injection, schedule: Q01DX009 (ip), vehicle: saline 109 % of control | dose: 200.0 mg/kg/injection, schedule: Q01DX009 (ip), vehicle: saline 99 % of control

Cc1c(N=Nc2ccccc2Cl)c(-c2ccccc2)nn1C(=S)S
inactive: [1] 111 % of control | [2] 108 % of control | [3] 111 % of control

CC(C)(Sc1cc(Cl)c(Cl)c(Cl)c1)C(=O)OCCN1CCOCC1
inactive: [7] 101 % of control and 88 % of control | [8] 101 % of control | [9] 86 % of control and 94 % of control

COc1ccc2nc3cc(Cl)ccc3c(NCCCCN3CCCC3)c2n1
inactive: [4] 101 % of control | [5] 105 % of control

OCCCOCCCOCCCOCCCOCCCOCCCO
inactive: [1] 100 % of control | [2] 96 % of control | [3] 102 % of control

CN1CC1c1cc2ccccc2c2ccccc12 (configuration not stated)
inactive: dose: 100.0 mg/kg/injection, schedule: Q01DX001 (ip), vehicle: suspension in saline 107 % of control | dose: 200.0 mg/kg/injection, schedule: Q01DX001 (ip), vehicle: suspension in saline 98 % of control | dose: 400.0 mg/kg/injection, schedule: Q01DX001 (ip), vehicle: suspension in saline 101 % of control

OC(c1ccccc1)(C(F)(F)F)C(O)(c1ccccc1)C(F)(F)F (configuration not stated)
inactive: [13] 99 % of control | [14] 104 % of control | [15] 87 % of control

O=c1[nH]cnc2cc(N3CCOCC3)c([N+](=O)[O-])cc12
inactive: dose: 50.0 mg/kg/injection, schedule: Q04DX003 (ip), vehicle: saline with Tween-80 105 % of control | dose: 100.0 mg/kg/injection, schedule: Q04DX003 (ip), vehicle: saline with Tween-80 100 % of control | dose: 200.0 mg/kg/injection, schedule: Q04DX003 (ip), vehicle: saline with Tween-80 100 % of control

CCN1/C(=C/C=C/C=C/c2sc3ccccc3[n+]2CC)Sc2ccccc21
inactive: dose: 0.05 mg/kg/injection, schedule: Q01DX009 (ip), vehicle: saline 123 % of control | dose: 0.06 mg/kg/injection, schedule: Q01DX009 (ip), vehicle: saline 124 % of control | dose: 0.08 mg/kg/injection, schedule: Q01DX009 (ip), vehicle: saline 107 % of control | dose: 0.12 mg/kg/injection, schedule: Q01DX009 (ip), vehicle: saline 117 % of control and 122 % of control | dose: 0.25 mg/kg/injection, schedule: Q01DX009 (ip), vehicle: saline 123 % of control | dose: 0.28 mg/kg/injection, schedule: Q01DX009 (ip), vehicle: saline 123 % of control
